Data reported in US20230210984A1, “ADOPTIVE IMMUNOTHERAPY” (The Council of the Queensland Institute of Medical Research, priority 2019, published 2023).
pIC50: −log10 of the molar value. Where two headings read alike, the source gives them in different places.

Legend:
Format in all cases: cell-based
SNU719 and C666.1 cells [1] = experiment: MTS cell viability with HLA-mismatched versus HLA-matched T cells and inhibitors; settings: for effect of HLA-matched vs HLA-mismatched T cells in presence of inhibitor: MEK1/2 inhibitors 1 μM, JQ1 2.5 μM, T cells 25:1; for cell viability: 48 hrs
Protocol: FIG. 12: Combination of MEK1/2 inhibitors with HLA mismatched allogeneic-specific T cells. […] The data are represented as the mean±SD from three independent experiments. P-values were calculated using one-way ANOVA: ns=not significant, *=p<0.05, **=p<0.01, ***=p<0.001 and ****=p<0.0001.
FIG. 16: Combination of JQ1 inhibitors with HLA mismatched all T cells. […] The data are represented as the mean±SD from three independent experiments. P-values were calculated using one-way ANOVA: ns=not significant, *=p<0.05, **=p<0.01, ***=p<0.001 and ****=p<0.0001.
Next, we wanted to determine the specificity of the combination and as such we challenged SNU719 and C666.1 cells with HLA-mismatched allogeneic T cells alongside MEK1/2 inhibitors (both selumetanib and trematinib), individually and in combination.
Next, we wanted to determine the specificity of the combination and as such we challenged SNU719 and C666.1 cells with HLA-mismatch allogeneic T cells alongside JQ1 inhibitor individually and in combination.

SNU719 and C666.1 cells [2] = experiment: Flow cytometry of Ki67 and active Caspase 3 after individual and dual treatment; settings: dual treatment with HLA matched T cells vs individual treatment, 16 hours
Protocol: FIG. 11: Impact of dual combination of MEK1/2 inhibitor and HLA matched allogeneic EBV specific T cells. (A) Cell growth curve highlight the rate of cellular proliferation of SNU719 (upper panel) and C666.1 (lower panel) observed in the presence of HLA-matched EBV specific T cells (effector-to-target ratio of 25:1) and selumatinib (1 μM) individually and in combination, measured using Xcellegence. The effect of individual and dual combination on (B) cell proliferation based on Ki67 and (C) cell death based on active Caspase-3 of SNU719 expression (upper panel) and C666.1 (lower panel), performed using flow cytometry. The data are represented as the mean±SD from three independent experiments. P-values were calculated using one-way ANOVA: ns=not significant, *p<0.05, **p<0.01, ***p<0.001 and ****p<0.0001.
FIG. 15: Impact of dual combination of JQ1 inhibitor and HLA matched allogeneic EBV-specific T cells. The cell viability measured by MTS assay highlighting the impact of a HLA-matched EBV specific T cells at the effector-to-target ratio of 25:1 and JQ1 (2.5 μM) in suppressing cellular growth individually and in combination after 48 hrs of incubation with indicated (A) gastric (SNU719, YCCLE1 (upper panel)) and nasopharyngeal cancer cells (C17, C666.1 (lower panel)). (B) Cell growth curve highlight the rate of cellular proliferation of SNU719 (upper panel) and C666.1 (lower panel) observed in the presence of HLA-matched EBV specific T cells (effector-to-target ratio of 25:1) and JQ1 (2.5 μM) individually and in combination, measured using Xcellegence. The effect of individual and dual combination on (C) cell proliferation based on Ki67 and (D) cell death based on active Caspase-3 of SNU719 expression (upper panel) and C666.1 (lower panel), performed using flow cytometry. The data are represented as the mean±SD from three independent experiments. P-values were calculated using one-way ANOVA: ns=not significant, *p<0.05, **p<0.01, ***p<0.001 and ****p<0.0001.
Further, to validate the impact of the combination on the cell proliferation of the EBV-associated cancer cells, we challenged SNU719 and C666.1 cells with individual and dual combination using Xcellegence. […] We also performed phenotypic characterization, using flow cytometry, of SNU719 and C666.1 cells after 16 hours of individual and dual treatment in vitro.
Similarly, we targeted MYC-dependent cancer intrinsic pathway using JQ1 inhibitor by first determining the IC50 value of the inhibitor across nasopharyngeal and gastric cancer cell lines (with drug concertation ranging from 0.5 μM-10 μM). […]

[3] = system: EBV-associated cell lines (nasopharyngeal and gastric cancer cell lines); experiment: MTS cell viability assay, IC50 of inhibitors; settings: for pIC50: read-out: IC50 (~50% reduction in cell viability); for IC25 value (sub IC50 value): concentration chosen for in vitro combination treatment
Protocol: FIG. 9: Determining the IC50 value of MEK1/2 inhibitors. Representation of the cell viability performed using MTS assay after the indicated cell lines were incubated with 0.1 μM-5 μM of selumatinib (left panel) and trametinib (right panel) for 48 hours. The data are represented as the mean±SD from three independent experiments.
FIG. 14: Determining the IC50 value of JQ1 inhibitors. Representation of the cell viability performed using MTS assay after the indicated cell lines were incubated with 0.5 μM-10 μM of JQ1 for 48 hours. The data are represented as the mean±SD from three independent experiments.
Cell viability assay was performed using the CellTiter 96® AQueous one cell viability assay reagent (Promega, WI, USA) for three biological replicates per EBV-associated cancer cell lines in triplicate. Briefly, the cancer cells (target cells) were plated at a density of 5000 cells per well in an overall media volume of 200 μL on a 96-well tissue-culture plate (BD Falcon™). The effector AdE1-LMPpoly transfected T cells were freshly thawed in RPMI-1640 with 10% FCS and 120 IU/mL of recombinant IL-2 at 37° C. and […]. Post 24 hrs of plating and incubation at 37° C. and […], the effector T cells were mixed to the target cells at a gradient ratio of effector to target (E:T) of 5:1-100:1. The exact number of T cells (To) used per E:T ratio (ET) was independently used as control alongside PBS treated target cells (Es) and sole media (M0). After 24 hrs of incubation at 37° C. and […], MTS was added to each well (1:100 dilution in media) and was incubated for 1 hour following which the plate was centrifuged at 1,200×g at room temperature for 5 min and absorbance of the mixture at an optical density of 490 nm was measured via a microplate reader. The relative cell viability was calculated using the following formula: […]
To determine the upregulation of MAPK pathway in EBV-associated solid cancers, we first identified the IC50 value of MEK1/2 inhibitors (AZD6244 or selumetanib and trematinib) across nasopharyngeal and gastric cancer cell lines (with drug concertation ranging from 0.1 μM-5 μM). […] In the next set of experiments, we wanted to determine the impact of MEK1/2 inhibition in combination with allogeneic EBV-specific T cells on EBV-associated solid cancers. As such, we treated the respective EBV-associated cell lines (both gastric and nasopharyngeal) individually or in combination with MEK1/2 inhibitors (both selumetanib and trematinib) and EBV-specific T cells.
Similarly, we targeted MYC-dependent cancer intrinsic pathway using JQ1 inhibitor by first determining the IC50 value of the inhibitor across nasopharyngeal and gastric cancer cell lines (with drug concertation ranging from 0.5 μM-10 μM). […] To characterized the impact of JQ1 inhibition in combination with allogeneic EBV-specific T cells on EBV-associated cancer cells, we used IC25 value JQ1 (2.5 μM) alongside an effector to target ratio of 25:1 of the respective HLA matched allogeneic EBV-specific T cells in vitro. […] We also performed phenotypic characterization, using flow cytometry, of SNU719 and C666.1 cells after 16 hours of individual and dual treatment in vitro.

[4] = combination with HLA-mismatch allogeneic T cells 25:1 vs DMSO treated control
[5] = combination with HLA-mismatch allogeneic T cells 25:1 vs inhibitor alone

Structure (SMILES) | effect of HLA-matched vs HLA-mismatched T cells in presence of inhibitor (SNU719 and C666.1 cells [1]) | cell viability (SNU719 and C666.1 cells [1]; [4]) | cell viability (SNU719 and C666.1 cells [1]; [5]) | cell death (Active Caspase 3 staining) (SNU719 and C666.1 cells [2]) | cell proliferation (Ki67+ staining) (SNU719 and C666.1 cells [2]) | pIC50 ([3]; EBV-associated nasopharyngeal and gastric cancer cell lines, MTS assay, 48 hours, compared to NPC43 (EBV-)) | IC25 value (sub IC50 value) [3] | pIC50 ([3]; 48 h)
Cc1sc2c(c1C)C(c1ccc(Cl)cc1)=N[C@@H](CC(=O)OC(C)(C)C)c1nnc(C)n1-2 [JQ1] | significantly amplified | significant reduction in cell viability | no significant reduction in cell viability | significant cell death | significant loss of cell proliferation | ~5.60 | 2500 nM | –
Cn1cnc2c(F)c(Nc3ccc(Br)cc3Cl)c(C(=O)NOCCO)cc21 [selumetanib] | significantly amplified | significant reduction in cell viability | no significant reduction in cell viability | significant cell death | significant loss of cell proliferation | – | 1000 nM | ~5.60
